Patent publication US7192746B2, “α-Isomaltosyltransferase, process for producing the same and use thereof” (Kabushiki Kaisha Hayashibara Seibutsu Kagaku Kenkyujo, priority 2000, dated 2007)

Experiments:
Type in all cases: biochemical
[1] = test system: α-isomaltosyl-transferring enzyme from Bacillus globisporus C9; assay: Specificity to transferring acceptor; conditions: panose as saccharide donor, 10 units/g substrate, 3.2% (w/v), 30° C., pH 6.0, 24 hours
Summary of the method: (§1)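 Each candidate acceptor was mixed with panose donor at equal concentration, then given 10 units/g substrate of enzyme (purified, or partially purified for strain A19) at 3.2% (w/v) total saccharide. Reactions ran 24 hours at 30° C., pH 6.0, and were scored for presence or absence of transfer product.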

[2] = test system: α-isomaltosyl-transferring enzyme from Bacillus globisporus N75; assay: Specificity to transferring acceptor; conditions: panose as saccharide donor, 10 units/g substrate, 3.2% (w/v), 30° C., pH 6.0, 24 hours
Summary of the method: as §1

[3] = test system: α-isomaltosyl-transferring enzyme from Arthrobacter ramosus S1; assay: Specificity to transferring acceptor; conditions: panose as saccharide donor, 10 units/g substrate, 3.2% (w/v), 30° C., pH 6.0, 24 hours
Summary of the method: as §1

[4] = test system: α-isomaltosyl-transferring enzyme from Bacillus globisporus C11; assay: Specificity to transferring acceptor; conditions: panose as saccharide donor, 10 units/g substrate, 3.2% (w/v), 30° C., pH 6.0, 24 hours
Summary of the method: as §1

[5] = test system: α-isomaltosyl-transferring enzyme from Arthrobacter globiformis A19; assay: Specificity to transferring acceptor; conditions: partially purified enzyme, panose as saccharide donor, 10 units/g substrate, 3.2% (w/v), 30° C., pH 6.0, 24 hours
Summary of the method: as §1

[6] = test system: α-isomaltosyl-transferring enzyme from Bacillus globisporus C9; assay: Action on saccharides (substrates, TLC); parameters: key: −: there was found no substrate change before and after the enzymatic reaction; +: there were found both the reduction of substrate and the formation of cyclotetrasaccharide after the enzymatic reaction; conditions: 2 units/g substrate, 2% (w/v) substrate, 30° C., pH 6.0, 24 hours
Summary of the method: (§2)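 Purified enzyme (partially purified for A. globiformis A19) at 2 units/g substrate acted on each saccharide at 2% (w/v), pH 6.0, 30° C., 24 h. Pre- and post-reaction mixtures ran on silica gel TLC in n-butanol/pyridine/water (6:4:1). Total sugars were stained by sulfuric acid-methanol and reducing sugars by diphenylamine-aniline.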

[7] = test system: α-isomaltosyl-transferring enzyme from Bacillus globisporus N75; assay: Action on saccharides (substrates, TLC); parameters: key: −: there was found no substrate change before and after the enzymatic reaction; +: there were found both the reduction of substrate and the formation of cyclotetrasaccharide after the enzymatic reaction; conditions: 2 units/g substrate, 2% (w/v) substrate, 30° C., pH 6.0, 24 hours
Summary of the method: as §2

[8] = test system: α-isomaltosyl-transferring enzyme from Arthrobacter ramosus S1; assay: Action on saccharides (substrates, TLC); parameters: key: −: there was found no substrate change before and after the enzymatic reaction; +: there were found both the reduction of substrate and the formation of cyclotetrasaccharide after the enzymatic reaction; conditions: 2 units/g substrate, 2% (w/v) substrate, 30° C., pH 6.0, 24 hours
Summary of the method: as §2

[9] = test system: α-isomaltosyl-transferring enzyme from Bacillus globisporus C11; assay: Action on saccharides (substrates, TLC); parameters: key: −: there was found no substrate change before and after the enzymatic reaction; +: there were found both the reduction of substrate and the formation of cyclotetrasaccharide after the enzymatic reaction; conditions: 2 units/g substrate, 2% (w/v) substrate, 30° C., pH 6.0, 24 hours
Summary of the method: as §2

[10] = test system: α-isomaltosyl-transferring enzyme from Arthrobacter globiformis A19; assay: Action on saccharides (substrates, TLC); parameters: key: −: there was found no substrate change before and after the enzymatic reaction; +: there were found both the reduction of substrate and the formation of cyclotetrasaccharide after the enzymatic reaction; conditions: partially purified enzyme, 2 units/g substrate, 2% (w/v) substrate, 30° C., pH 6.0, 24 hours
Summary of the method: as §2

| Compound | Product of transferring reaction, Enzyme of Strain C9 [1] | Product of transferring reaction, Enzyme of Strain N75 [2] | Product of transferring reaction, Enzyme of Strain S1 [3] | Product of transferring reaction, Enzyme of Strain C11 [4] | Product of transferring reaction, Enzyme of Stain A19 [5] | Enzymatic action for forming cyclotetrasaccharide, Enzyme of Strain C9 [6] | Enzymatic action for forming cyclotetrasaccharide, Enzyme of Strain N75 [7] | Enzymatic action for forming cyclotetrasaccharide, Enzyme of Strain S1 [8] | Enzymatic action for forming cyclotetrasaccharide, Enzyme of Strain C11 [9] | Enzymatic action for forming cyclotetrasaccharide, Enzyme of Strain A19 [10] |
| --- | --- | --- | --- | --- | --- | --- | --- | --- | --- | --- |
| O=C[C@H](O)[C@@H](O)[C@H](O[C@@H]1O[C@H](CO)[C@@H](O)[C@H](O)[C@H]1O)[C@H](O)CO [Cellobiose, cellobiose] | + (a saccharide-transferred product was formed in an amount of over one percent but below 10% to the total sugars) | + (a saccharide-transferred product was formed in an amount of over one percent but below 10% to the total sugars) | + (a saccharide-transferred product was formed in an amount of over one percent but below 10% to the total sugars) | + (a saccharide-transferred product was formed in an amount of over one percent but below 10% to the total sugars) | + (a saccharide-transferred product was formed in an amount of over one percent but below 10% to the total sugars) | − | − | − | − | − |
| OC[C@H]1O[C@@H](O[C@H]2[C@H](O)[C@@H](O)C(O)O[C@@H]2CO)[C@H](O)[C@@H](O)[C@H]1O (stereo partly drawn) [Lactose, lactose] | + (a saccharide-transferred product was formed in an amount of over one percent but below 10% to the total sugars) | + (a saccharide-transferred product was formed in an amount of over one percent but below 10% to the total sugars) | + (a saccharide-transferred product was formed in an amount of over one percent but below 10% to the total sugars) | + (a saccharide-transferred product was formed in an amount of over one percent but below 10% to the total sugars) | + (a saccharide-transferred product was formed in an amount of over one percent but below 10% to the total sugars) | − | − | − | − | − |
| OC[C@H]1O[C@H](O[C@H]2O[C@H](CO)[C@@H](O)[C@H](O)[C@H]2O)[C@H](O)[C@@H](O)[C@@H]1O [α,α-Trehalose, α,α-trehalose] | + (a saccharide-transferred product was formed in an amount of over one percent but below 10% to the total sugars) | + (a saccharide-transferred product was formed in an amount of over one percent but below 10% to the total sugars) | + (a saccharide-transferred product was formed in an amount of over one percent but below 10% to the total sugars) | + (a saccharide-transferred product was formed in an amount of over one percent but below 10% to the total sugars) | + (a saccharide-transferred product was formed in an amount of over one percent but below 10% to the total sugars) | − | − | − | − | − |
| OC[C@H]1O[C@H](O[C@H]2[C@H](O)[C@@H](O)[C@@H](OC[C@H]3OC(O)[C@H](O)[C@@H](O)[C@@H]3O)O[C@@H]2CO)[C@H](O)[C@@H](O)[C@@H]1O (stereo partly drawn) [Isopanose, isopanose] | + (a saccharide-transferred product was formed in an amount of over one percent but below 10% to the total sugars) | + (a saccharide-transferred product was formed in an amount of over one percent but below 10% to the total sugars) | + (a saccharide-transferred product was formed in an amount of over one percent but below 10% to the total sugars) | + (a saccharide-transferred product was formed in an amount of over one percent but below 10% to the total sugars) | + (a saccharide-transferred product was formed in an amount of over one percent but below 10% to the total sugars) | − | − | − | − | − |
| maltotriose | + (a saccharide-transferred product was formed in an amount of over one percent but below 10% to the total sugars) | + (a saccharide-transferred product was formed in an amount of over one percent but below 10% to the total sugars) | ++ (a saccharide-transferred product was formed in an amount of over 10% to the total sugars) | + (a saccharide-transferred product was formed in an amount of over one percent but below 10% to the total sugars) | + (a saccharide-transferred product was formed in an amount of over one percent but below 10% to the total sugars) | − | − | − | − | − |
| OC[C@H]1O[C@H](O[C@H]2[C@H](O)[C@@H](O)[C@H](O)O[C@@H]2CO)[C@H](O)[C@@H](O)[C@@H]1O [Maltose, maltose] | + (a saccharide-transferred product was formed in an amount of over one percent but below 10% to the total sugars) | + (a saccharide-transferred product was formed in an amount of over one percent but below 10% to the total sugars) | + (a saccharide-transferred product was formed in an amount of over one percent but below 10% to the total sugars) | + (a saccharide-transferred product was formed in an amount of over one percent but below 10% to the total sugars) | + (a saccharide-transferred product was formed in an amount of over one percent but below 10% to the total sugars) | − | − | − | − | − |
